Key:
WiDr (colon) = experiment: Antiproliferative activity, WiDr; format: cell-based, human; settings: for GI50: Homo sapiens
Experimental: (§1) The in vitro antiproliferative activity of investigated compounds was evaluated against six human solid tumor cell lines: A549 (non-small cell lung), HBL-100, (breast), HeLa (cervix), SW1573 (non-small cell lung), as drug sensitive lines, T-47D (breast) and WiDr (colon) as drug resistant lines. These cell lines were a kind gift from Prof. G. J. Peters (VU Medical Center, Amsterdam, The Netherlands). For selectivity studies, the human fibroblasts BJ-hTert cell line was used, which was obtained from Dr. R. Freire (HUC, Tenerife, Canary Islands). Cells were kept in culture medium under standard conditions: RPMI 1640 medium, fetal bovine serum (5%), glutamine (2 mM), penicillin G (100 units/mL) and streptomycin (0.1 mg/mL). Antiproliferative tests were conducted as described earlier (Skehan et al., [1990]; Miranda et al., [2006]). Tested compounds were dissolved in DMSO at an initial concentration of 40 mM. DMSO was used as negative control (0.25% v/v). Antiproliferative activity of the compounds was expressed as GI50, which is the concentration of the compound that inhibits 50% of the culture growth.

[1] = system: human fibroblasts BJ-hTert cell line; experiment: Selectivity, non-transformed fibroblasts BJ-hTert; format: cell-based; settings: Fibroblast; BJ-hTert normal human cell line; concentrations up to 100 μM
Experimental: as §1

[2] = system: SW1573 (non-small cell lung); experiment: Antiproliferative activity, SW1573; format: cell-based, human; settings: Homo sapiens
Experimental: as §1

[3] = system: A549 (non-small cell lung); experiment: Antiproliferative activity, A549; format: cell-based, human; settings: Homo sapiens
Experimental: as §1

HBL-100 (breast) = experiment: Antiproliferative activity, HBL-100; format: cell-based, human; settings: Homo sapiens
Experimental: as §1

T-47D (breast) = experiment: Antiproliferative activity, T-47D; format: cell-based, human; settings: for GI50: Homo sapiens, T47D
Experimental: as §1

HeLa (cervix) = experiment: Antiproliferative activity, HeLa; format: cell-based, human; settings: Homo sapiens
Experimental: as §1

[4] = system: six human solid tumor cell lines; experiment: Antiproliferative activity, panel as a whole; format: cell-based; parameters: key: moderate activity (GI50 = 10–100 μM); good activity (GI50 = 1–10 μM); inactive (GI50 > 100 μM)
Experimental: as §1

MAO A = target: T1, MAO A (Homo sapiens, UniProt P21397); experiment: MAO A inhibition, discontinuous fluorimetric kynuramine assay; format: biochemical; settings: for inhibition at 1 µM: 1 μM inhibitor, mean ± SD, n = 2, normalized to control
T1 construct: purchased Sigma-Aldrich
T1 sequence (P21397 1-527): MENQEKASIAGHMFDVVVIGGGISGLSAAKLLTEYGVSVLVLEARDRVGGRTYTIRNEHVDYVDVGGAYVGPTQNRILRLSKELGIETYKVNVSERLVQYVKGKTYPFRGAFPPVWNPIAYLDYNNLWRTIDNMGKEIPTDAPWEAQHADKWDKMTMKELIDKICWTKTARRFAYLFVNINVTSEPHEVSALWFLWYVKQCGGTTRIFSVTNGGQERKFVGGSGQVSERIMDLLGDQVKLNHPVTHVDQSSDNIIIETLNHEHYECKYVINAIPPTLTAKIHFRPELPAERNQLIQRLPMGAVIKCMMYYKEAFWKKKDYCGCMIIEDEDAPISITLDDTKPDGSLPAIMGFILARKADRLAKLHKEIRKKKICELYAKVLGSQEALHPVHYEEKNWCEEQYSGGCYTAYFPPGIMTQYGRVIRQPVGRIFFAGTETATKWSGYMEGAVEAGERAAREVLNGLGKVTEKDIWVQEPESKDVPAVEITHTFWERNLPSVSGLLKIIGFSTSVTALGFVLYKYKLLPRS
Experimental: (§2) MAO A and B inhibition capacities were investigated using a discontinuous fluorimetric assay (Meiring et al., [2013]) as described previously by using human recombinant membrane-bound MAO purchased from Sigma-Aldrich (Affini et al., [2018]). Briefly, remained enzyme activity with inhibitor, either 1 μM (one-point) or concentrations ranging from 0.0001 to 10 μM, was assessed in the presence of kynuramine [2 × KM, KM = 20 μM (MAO A), KM = 30 μM (MAO B)] in potassium phosphate buffer (pH 7.4). Reactions were started by addition of enzyme and stopped by manual addition of sodium hydroxide (2 N) after 20 min. Enzyme activity was determined by detection of 4-hydroxyquinoline (λEx = 320 nm, λEm = 405 nm). Data were analyzed using GraphPad PRISM 6. For one-point measurements data were calculated as percentage of control and expressed as mean ± standard deviation (%). […] Data were obtained from two (one-point measurements) or at least three (IC50 values) independent experiments, each performed in duplicates.

[5] = Total reducing power (TRP), modified potassium ferricyanide reduction method; settings: concentration providing 0.500 of absorbance at 700 nm; mean ± SD, n = 3
Experimental: The mixture containing 0.5 mL of phosphate buffer (0.2 M, pH = 6.6), 0.5 mL of K3[Fe(CN)6] (1%; w/v) and 0.5 mL of the samples (100–1,500 μM) was incubated at 50°C for 20 min. A volume of 0.5 mL of trichloroacetic acid (TCA, 10%; w/v), 0.5 mL of Milli-Q water and 0.5 mL of FeCl3 (0.1%; w/v) was added, followed by intensive vortexing. The absorbance of the resulting mixture was measured after 60 min at 700 nm using phosphate buffer as blank (Oyaizu, [1986]).
(§3) Volume of 0.4 mL of sample solution (50–1,000 μM) was mixed with 1.6 mL of reagent solution [0.6 M H2SO4, 28 mM Na3PO4, and 4 mM (NH4)2MoO4] and resulting mixtures were incubated at 95°C for 90 min. The cooled reaction mixtures were then centrifuged for 10 min (3,000 rpm). The absorbance of the supernatant solution was measured, 1 h after centrifugation, at 695 nm against reagent solution as blank. An increased absorbance in reading in both assays indicated increased antioxidant power, expressed as EC50 values (the sample concentration giving absorbance of 0.500 from the graph of absorbance at 700 nm or 695 nm against compound concentration) (Prieto et al., [1999]).

[6] = Total antioxidant capacity (TAOC), modified phosphomolybdenum method; settings: concentration providing 0.500 of absorbance at 695 nm; mean ± SD, n = 3
Experimental: as §3

MAO B = target: T2, MAO B (Homo sapiens, UniProt P27338); experiment: MAO B inhibition, discontinuous fluorimetric kynuramine assay; format: biochemical; settings: for inhibition at 1 µM: 1 μM inhibitor, mean ± SD, n = 2, normalized to control
T2 construct: purchased Sigma-Aldrich
T2 sequence (P27338 1-520): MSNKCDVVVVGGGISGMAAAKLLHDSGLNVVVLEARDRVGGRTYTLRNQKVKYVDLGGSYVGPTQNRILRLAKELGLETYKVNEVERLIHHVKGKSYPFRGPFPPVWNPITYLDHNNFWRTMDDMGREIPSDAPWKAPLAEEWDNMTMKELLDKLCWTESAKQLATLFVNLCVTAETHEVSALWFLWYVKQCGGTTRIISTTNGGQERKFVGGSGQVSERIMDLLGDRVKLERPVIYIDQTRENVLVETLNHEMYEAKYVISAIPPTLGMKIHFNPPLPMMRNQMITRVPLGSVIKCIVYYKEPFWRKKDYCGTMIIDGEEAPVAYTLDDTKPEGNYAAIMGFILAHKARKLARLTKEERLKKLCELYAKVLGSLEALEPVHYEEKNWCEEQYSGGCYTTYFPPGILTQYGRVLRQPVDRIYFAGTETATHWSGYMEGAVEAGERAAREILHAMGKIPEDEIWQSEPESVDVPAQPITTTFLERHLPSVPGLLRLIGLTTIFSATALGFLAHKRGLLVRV
Experimental: as §2

[7] = DPPH scavenging antioxidant assay; settings: concentration providing 50% of radicals scavenging activity; mean ± SD, n = 3
Experimental: The experiments were performed according to the literature protocol (Prior et al., [2005]). All tested compounds were initially dissolved in DMSO. The initial concentration of DPPH in methanol was 6.58 × 10^−5 M. A volume of 140 μL of DPPH solution was placed into a 96-well microplate, and then 10 μL solution of the tested compounds was added. Pure DMSO (10 μL) was used as the control. The absorbance at 517 nm was measured after 30 min period of incubation in the dark at 25°C. The Equation (1) was used for calculation of the scavenging activity:
(1) Scavenging activity (%)=Acontrol- Asample/Acontrol×100
where Asample and Acontrol refer to the absorbances at 517 nm of the sample and control, respectively. IC50 values were calculated from the graph of scavenging activity against the concentrations of the samples. IC50 represents the total antioxidant concentration of the sample which decreases the amount of the initial DPPH radical by 50%. Ascorbic acid (vitamin C) was used as positive control (concentration range 10–500 μM).

[8] = mean, 95% CI, at least three experiments

Structure (SMILES) | GI50 (WiDr (colon)) [µM] | GI50 [1] [µM] | GI50 [2] [µM] | GI50 [3] [µM] | GI50 (HBL-100 (breast)) [µM] | GI50 (T-47D (breast)) [µM] | GI50 (HeLa (cervix)) [µM] | antiproliferative activity class against five cell lines ([4]; five cell lines of the six) | inhibition at 1 µM (MAO A) [%] | EC50 [5] [µM] | EC50 [6] [µM] | inhibition at 1 µM (MAO B) [%] | IC50 [7] [µM] | melting point [°C] | GI50 (T-47D (breast); T-47D) [µM] | antiproliferative activity class WiDr (WiDr (colon)) | IC50 (MAO A; [8]) [µM] | IC50 (MAO B; [8]) [µM] | antiproliferative activity class T-47D (T-47D (breast); T-47D) | antiproliferative activity class against all six cell lines ([4]; all six cell lines)
O=c1[nH]cc(F)c(=O)[nH]1 [5-fluorouracil, reference compound] | 49 ± 6.7 | 5.5 ± 0.5 | 4.6 ± 1.5 | > 100 | 4 ± 0.7 | 47 ± 18 | 15 ± 4.7 | – | – | – | – | – | – | – | – | – | – | – | – | –
Cc1ccc(-c2c[se]c(NN=Cc3ccccc3)n2)cc1 [Compound 1-Me, 2-(2-benzylidenehydrazinyl)-4-(p-tolyl)-1,3-selenazole] | > 100 | > 100 | 47 ± 3 | > 100 | > 100 | – | > 100 | inactive | 12.7 ± 3.5 | 966 ± 88 | 603 ± 61 | 23.4 ± 17.1 | 45.1 ± 6.53 | 174 to 176 | > 100 | – | – | – | – | –
O=[N+]([O-])c1ccc(C=NNc2nc(-c3ccccc3)c[se]2)cc1 [Compound 4, 2-(2-(4-nitrobenzylidene)hydrazinyl)-4-phenyl-1,3-selenazole] | 6.9 ± 1.3 | > 100 | 23 ± 1.2 | 16 ± 3.5 | > 100 | – | 31 ± 8.5 | – | 71.9 ± 3.5 | 376 ± 51 | 433 ± 43 | 96.3 ± 0.5 | 44.8 ± 2.3 | – | 6.3 ± 1.1 | good activity (good activity (GI50 = 1–10 μM)) | 0.258 | 0.073 | good activity (good activity (GI50 = 1–10 μM)) | –
Cc1ccc(-c2c[se]c(NN=Cc3ccc([N+](=O)[O-])cc3)n2)cc1 [Compound 4-Me, 2-(2-(4-nitrobenzylidene)hydrazinyl)-4-(p-tolyl)-1,3-selenazole] | > 100 | > 100 | > 100 | > 100 | > 100 | – | > 100 | – | 22.1 ± 2.1 | 495 ± 48 | 579 ± 51 | 48.1 ± 2.9 | 40.1 ± 4.7 | 228 to 230 | > 100 | – | – | – | – | inactive
COc1ccc(-c2c[se]c(NN=Cc3ccc([N+](=O)[O-])cc3)n2)cc1 [Compound 4-OMe, 4-(4-methoxyphenyl)-2-(2-(4-nitrobenzylidene)hydrazinyl)-1,3-selenazole] | > 100 | > 100 | 26 ± 17 | 16 ± 5.3 | 47 ± 13 | – | 33 ± 10 | – | 49.4 ± 1.3 | 398 ± 44 | 645 ± 53 | 42.5 ± 19 | 79.2 ± 3.9 | 208 to 211 | 66 ± 17 | – | – | – | – | –
O=C1O[C@H]([C@@H](O)CO)C(O)=C1O [vitamin C, Ascorbic acid, reference compound] | – | – | – | – | – | – | – | – | – | 155 ± 39 | 140 ± 10 | – | 79.1 ± 1.8 | – | – | – | – | – | – | –

From publication PMC6037691, “Selenazolyl-hydrazones as Novel Selective MAO Inhibitors With Antiproliferative and Antioxidant Activities: Experimental and In-silico Studies” (Frontiers in Chemistry, 2018)
